PMC6941148 (Journal of medicinal chemistry, 2019)

What was measured:
[1] = molecular target: HIV-1 protease I84V variant (Human immunodeficiency virus type 1 group M subtype B, UniProt P12497, I572V/Q495K); assay type: biochemical
WT HIV-1 strain NL4-3 = assay: Cell-based antiviral assay; details: relative to DRV
MDR HIV-1 variant VSL20 = assay: Cell-based antiviral assay; details: relative to corresponding isobutyl analogues 12 and 13

SMILES	fold less active than DRV against wild-type HIV-1 (WT HIV-1 strain NL4-3)	fold loss in potency against VSL20 compared to analogues 12 and 13 (MDR HIV-1 variant VSL20)	also measured
CC(C)CN(C[C@@H](O)[C@H](Cc1ccccc1)NC(=O)O[C@H]1CO[C@H]2OCC[C@H]21)S(=O)(=O)c1ccc([C@H](O)CO)cc1 [Compound 23, (3R,3aS,6aR)-Hexahydrofuro[2,3-b]furan-3-yl ((2S,3R)-4-((4-((S)-1,2-dihydroxyethyl)-N-isobutylphenyl)sulfonamido)-3-hydroxy-1-phenylbutan-2-yl)carbamate]	–	–	fold less active against the I84V protease than the P2′ epimer 22 ([1]; I84V protease, relative to diastereoisomer 22): about 3 fold
CCC(CC)CN(C[C@@H](O)[C@H](Cc1ccccc1)NC(=O)O[C@H]1CO[C@H]2OCC[C@H]21)S(=O)(=O)c1ccc([C@H](O)CO)cc1 [Compound 27, (3R,3aS,6aR)-Hexahydrofuro[2,3-b]furan-3-yl ((2S,3R)-4-((4-((S)-1,2-dihydroxyethyl)-N-(2-ethylbutyl)phenyl)sulfonamido)-3-hydroxy-1-phenylbutan-2-yl)carbamate]	8 fold	–	fold less potent against the protease variants tested than the (R)-epimer 26 ([1]; I84V and I50V/A71V variants, relative to 26): 2–3 fold
CC[C@H](C)CN(C[C@@H](O)[C@H](Cc1ccccc1)NC(=O)O[C@H]1CO[C@H]2OCC[C@H]21)S(=O)(=O)c1ccc([C@@H](C)O)cc1 [Compound 15, (3R,3aS,6aR)-Hexahydrofuro[2,3-b]furan-3-yl ((2S,3R)-3-hydroxy-4-((4-((R)-1-hydroxyethyl)-N-((S)-2-methylbutyl)phenyl)sulfonamido)-1-phenylbutan-2-yl)carbamate]	–	2 fold	–
CCC(CC)CN(C[C@@H](O)[C@H](Cc1ccccc1)NC(=O)O[C@H]1CO[C@H]2OCC[C@H]21)S(=O)(=O)c1ccc([C@@H](O)CO)cc1 [Compound 26, (3R,3aS,6aR)-Hexahydrofuro[2,3-b]furan-3-yl ((2S,3R)-4-((4-((R)-1,2-dihydroxyethyl)-N-(2-ethylbutyl)phenyl)sulfonamido)-3-hydroxy-1-phenylbutan-2-yl)carbamate]	8 fold	–	–
CC[C@H](C)CN(C[C@@H](O)[C@H](Cc1ccccc1)NC(=O)O[C@H]1CO[C@H]2OCC[C@H]21)S(=O)(=O)c1ccc([C@H](C)O)cc1 [Compound 14, (3R,3aS,6aR)-Hexahydrofuro[2,3-b]furan-3-yl ((2S,3R)-3-hydroxy-4-((4-((S)-1-hydroxyethyl)-N-((S)-2-methylbutyl)phenyl)sulfonamido)-1-phenylbutan-2-yl)carbamate]	–	2 fold	–
